From PubChem BioAssay AID1963856 (Molecular Pharmacology Branch, DTP, NCI, 2024)

Test system: LG0567-F671-PDC KRAS tumor spheroid viability
Test: Anticancer human tumor LG0567-F671-PDC patient-derived lung adenocarcinoma cell line growth inhibition [KRAS2]
Conditions: spheroids with HUVEC and MSC; for IC50: curve of first compound; for viability, T/C: stronger effect = lower value
Summary of the method: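 Combination screen of spheroid viability in tumor-cell co-cultures with endothelial (HUVEC) and mesenchymal stem cell stroma. Each agent was tested in half-log dilutions, topping at clinical Cmax or at 10 microM without a known Cmax.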

[1] = second compound 0.1 µM, first compound 0.000316 µM
[2] = second compound 0.1 µM, first compound 0.001 µM
[3] = second compound 0.1 µM, first compound 0.00316 µM
[4] = second compound 0.1 µM, first compound 0.01 µM
[5] = second compound 0.1 µM, first compound 0.0316 µM
[6] = second compound 0.316 µM, first compound 0.000316 µM
[7] = second compound 0.316 µM, first compound 0.001 µM
[8] = second compound 0.316 µM, first compound 0.00316 µM
[9] = second compound 0.316 µM, first compound 0.01 µM
[10] = second compound 0.316 µM, first compound 0.0316 µM
[11] = second compound 1 µM, first compound 0.000316 µM
[12] = second compound 1 µM, first compound 0.001 µM
[13] = second compound 1 µM, first compound 0.00316 µM
[14] = second compound 1 µM, first compound 0.01 µM
[15] = second compound 1 µM, first compound 0.0316 µM
[16] = second compound 3.16 µM, first compound 0.000316 µM
[17] = second compound 3.16 µM, first compound 0.001 µM
[18] = second compound 3.16 µM, first compound 0.00316 µM
[19] = second compound 3.16 µM, first compound 0.01 µM
[20] = second compound 3.16 µM, first compound 0.0316 µM
[21] = second compound 10 µM, first compound 0.000316 µM
[22] = second compound 10 µM, first compound 0.001 µM
[23] = second compound 10 µM, first compound 0.00316 µM
[24] = second compound 10 µM, first compound 0.01 µM
[25] = second compound 10 µM, first compound 0.0316 µM
[26] = second compound 0.1 µM, first compound 0.1 µM
[27] = second compound 0.316 µM, first compound 0.1 µM
[28] = second compound 1 µM, first compound 0.1 µM
[29] = second compound 3.16 µM, first compound 0.1 µM
[30] = second compound 10 µM, first compound 0.1 µM
[31] = second compound 0.1 µM, first compound 0.316 µM
[32] = second compound 0.1 µM, first compound 1 µM
[33] = second compound 0.1 µM, first compound 3.16 µM
[34] = second compound 0.1 µM, first compound 10 µM
[35] = second compound 0.316 µM, first compound 0.316 µM
[36] = second compound 0.316 µM, first compound 1 µM
[37] = second compound 0.316 µM, first compound 3.16 µM
[38] = second compound 0.316 µM, first compound 10 µM
[39] = second compound 1 µM, first compound 0.316 µM
[40] = second compound 1 µM, first compound 1 µM
[41] = second compound 1 µM, first compound 3.16 µM
[42] = second compound 1 µM, first compound 10 µM
[43] = second compound 3.16 µM, first compound 0.316 µM
[44] = second compound 3.16 µM, first compound 1 µM
[45] = second compound 3.16 µM, first compound 3.16 µM
[46] = second compound 3.16 µM, first compound 10 µM
[47] = second compound 10 µM, first compound 0.316 µM
[48] = second compound 10 µM, first compound 1 µM
[49] = second compound 10 µM, first compound 3.16 µM
[50] = second compound 10 µM, first compound 10 µM
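Also: drug exposure lasted seven days after spheroids formed for three days.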
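For viability, T/C in this document: 100% = DMSO vehicle control viability.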

In the case of `CC(=O)Nc1cccc(-n2c(=O)n(C3CC3)c(=O)c3c(Nc4ccc(I)cc4F)n(C)c(=O)c(C)c32)c1` + COc1cc2nc(C)nc(NC(C)c3cc(N)cc(C(F)(F)F)c3)c2cc1OC1CCOC1, the IC50 (second compound 0.1 µM) is reported as 1 nM, the IC50 (second compound 0.316 µM) is reported as 0.299 nM and the IC50 (second compound 1 µM) is reported as < 0.1 nM. For the same compound, the IC50 (second compound 3.16 µM) was < 0.1 nM, the IC50 (second compound 10 µM) was < 0.1 nM and the viability, T/C (second compound 0.1 µM, first compound 0.0001 µM) was 69.8%. For the same compound, the viability, T/C [1] was 52.6%, the viability, T/C [2] was 53% and the viability, T/C [3] was 39.9%. For the same compound, the viability, T/C [4] was 25.9%, the viability, T/C [5] was 8.34% and the viability, T/C (second compound 0.316 µM, first compound 0.0001 µM) was 60.9%. The viability, T/C [6] was 48.7%, the viability, T/C [7] was 36.3% and the viability, T/C [8] was 33.2%. The viability, T/C [9] was 22.7%, the viability, T/C [10] was 11.8% and the viability, T/C (second compound 1 µM, first compound 0.0001 µM) was 45.4%. The viability, T/C [11] was 43%, the viability, T/C [12] was 39.7% and the viability, T/C [13] was 31.2%. For the same compound, the viability, T/C [14] was 26.8%, the viability, T/C [15] was 7.58% and the viability, T/C (second compound 3.16 µM, first compound 0.0001 µM) was 48.6%. For the same compound, the viability, T/C [16] was 43.7%, the viability, T/C [17] was 34% and the viability, T/C [18] was 19.2%. The viability, T/C [19] was 17.1%, the viability, T/C [20] was 6.02% and the viability, T/C (second compound 10 µM, first compound 0.0001 µM) was 41.3%. For the same compound, the viability, T/C [21] was 36.6%, the viability, T/C [22] was 27.2% and the viability, T/C [23] was 13.4%. The viability, T/C [24] was 5.95% and the viability, T/C [25] was 1.33%.

For `CN(C)C/C=C/C(=O)Nc1cc2c(Nc3ccc(F)c(Cl)c3)ncnc2cc1O[C@H]1CCOC1` + COc1cc2nc(C)nc(NC(C)c3cc(N)cc(C(F)(F)F)c3)c2cc1OC1CCOC1, the IC50 (second compound 0.1 µM) was 30 nM, the IC50 (second compound 0.316 µM) was 4.27 nM and the IC50 (second compound 1 µM) was 11.2 nM. For the same compound, the IC50 (second compound 3.16 µM) was < 0.316 nM, the IC50 (second compound 10 µM) was < 0.316 nM and the viability, T/C [1] was 88.5%. For the same compound, the viability, T/C [2] was 68.1%, the viability, T/C [3] was 56.5% and the viability, T/C [4] was 51.2%. For the same compound, the viability, T/C [5] was 51.6%, the viability, T/C [26] was 48.2% and the viability, T/C [6] was 69.5%. It also gave a viability, T/C [7] of 60.9%, a viability, T/C [8] of 54.4% and a viability, T/C [9] of 40.8%. It also gave a viability, T/C [10] of 45.1%, a viability, T/C [27] of 46.2% and a viability, T/C [11] of 85.9%. The viability, T/C [12] was 66.4%, the viability, T/C [13] was 57.5% and the viability, T/C [14] was 53.9%. For the same compound, the viability, T/C [15] was 39.8%, the viability, T/C [28] was 49.3% and the viability, T/C [16] was 45.9%. The viability, T/C [17] was 43.8%, the viability, T/C [18] was 36.4% and the viability, T/C [19] was 32.1%. It also gave a viability, T/C [20] of 29.8%, a viability, T/C [29] of 32.1% and a viability, T/C [21] of 39.6%. The viability, T/C [22] was 35.5%, the viability, T/C [23] was 27.8% and the viability, T/C [24] was 24.4%. For the same compound, the viability, T/C [25] was 17.8% and the viability, T/C [30] was 22.4%.

With `COC(=O)c1ccc2c(C(=Nc3ccc(N(C)C(=O)CN4CCN(C)CC4)cc3)c3ccccc3)c(O)[nH]c2c1` + COc1cc2nc(C)nc(NC(C)c3cc(N)cc(C(F)(F)F)c3)c2cc1OC1CCOC1 the IC50 (second compound 0.1 µM) was > 10000 nM, the IC50 (second compound 0.316 µM) was > 10000 nM and the IC50 (second compound 1 µM) was > 10000 nM. For the same compound, the IC50 (second compound 3.16 µM) was 4080 nM, the IC50 (second compound 10 µM) was 1590 nM and the viability, T/C [5] was 112%. It also gave a viability, T/C [26] of 76.2%, a viability, T/C [31] of 65.9% and a viability, T/C [32] of 85.8%. The viability, T/C [33] was 83.8%, the viability, T/C [34] was 69.5% and the viability, T/C [10] was 60.2%. For the same compound, the viability, T/C [27] was 51.6%, the viability, T/C [35] was 58.8% and the viability, T/C [36] was 71.2%. It also gave a viability, T/C [37] of 61.7%, a viability, T/C [38] of 64.1% and a viability, T/C [15] of 72.3%. For the same compound, the viability, T/C [28] was 66.3%, the viability, T/C [39] was 61.5% and the viability, T/C [40] was 71.1%. It also gave a viability, T/C [41] of 66.4%, a viability, T/C [42] of 61.4% and a viability, T/C [20] of 73.8%. For the same compound, the viability, T/C [29] was 75.2%, the viability, T/C [43] was 66.7% and the viability, T/C [44] was 71.8%. For the same compound, the viability, T/C [45] was 64.2%, the viability, T/C [46] was 0.24% and the viability, T/C [25] was 78.7%. The viability, T/C [30] was 81.1%, the viability, T/C [47] was 82.3% and the viability, T/C [48] was 79%. It also gave a viability, T/C [49] of 6.56% and a viability, T/C [50] of 1.03%.

`COc1cc(Nc2ncc3c(n2)-c2ccc(Cl)cc2C(c2c(F)cccc2OC)=NC3)ccc1C(=O)O` + COc1cc2nc(C)nc(NC(C)c3cc(N)cc(C(F)(F)F)c3)c2cc1OC1CCOC1 was tested, and the IC50 (second compound 0.1 µM) was 2450 nM, the IC50 (second compound 0.316 µM) was < 31.6 nM and the IC50 (second compound 1 µM) was 169 nM. The IC50 (second compound 3.16 µM) was < 31.6 nM, the IC50 (second compound 10 µM) was < 31.6 nM and the viability, T/C [5] was 64.3%. The viability, T/C [26] was 59.9%, the viability, T/C [31] was 60.9% and the viability, T/C [32] was 55.1%. It also gave a viability, T/C [33] of 48.9%, a viability, T/C [34] of 36% and a viability, T/C [10] of 46.6%. The viability, T/C [27] was 50.2%, the viability, T/C [35] was 43.3% and the viability, T/C [36] was 47.1%. It also gave a viability, T/C [37] of 36%, a viability, T/C [38] of 28.2% and a viability, T/C [15] of 48.3%. For the same compound, the viability, T/C [28] was 53.7%, the viability, T/C [39] was 49.5% and the viability, T/C [40] was 44.5%. It also gave a viability, T/C [41] of 37.9%, a viability, T/C [42] of 28.8% and a viability, T/C [20] of 40%. It also gave a viability, T/C [29] of 44.4%, a viability, T/C [43] of 46.1% and a viability, T/C [44] of 36.9%. The viability, T/C [45] was 32.7%, the viability, T/C [46] was 23.6% and the viability, T/C [25] was 40.2%. For the same compound, the viability, T/C [30] was 37.8%, the viability, T/C [47] was 37.7% and the viability, T/C [48] was 33.1%. The viability, T/C [49] was 27.6% and the viability, T/C [50] was 18.9%.

In the case of `O=C(c1cc(Cc2n[nH]c(=O)c3ccccc23)ccc1F)N1CCN(C(=O)C2CC2)CC1` + COc1cc2nc(C)nc(NC(C)c3cc(N)cc(C(F)(F)F)c3)c2cc1OC1CCOC1, the IC50 (second compound 0.1 µM) is reported as > 10000 nM, the IC50 (second compound 0.316 µM) is reported as > 10000 nM and the IC50 (second compound 1 µM) is reported as > 10000 nM. For the same compound, the IC50 (second compound 3.16 µM) was > 10000 nM, the IC50 (second compound 10 µM) was > 10000 nM and the viability, T/C [5] was 84.3%. The viability, T/C [26] was 108%, the viability, T/C [31] was 81.8% and the viability, T/C [32] was 109%. For the same compound, the viability, T/C [33] was 96.8%, the viability, T/C [34] was 70.3% and the viability, T/C [10] was 68.5%. For the same compound, the viability, T/C [27] was 58.5%, the viability, T/C [35] was 67.8% and the viability, T/C [36] was 64%. For the same compound, the viability, T/C [37] was 57.4%, the viability, T/C [38] was 70.5% and the viability, T/C [15] was 102%. The viability, T/C [28] was 117%, the viability, T/C [39] was 98% and the viability, T/C [40] was 94.1%. The viability, T/C [41] was 95%, the viability, T/C [42] was 81.5% and the viability, T/C [20] was 69.3%. It also gave a viability, T/C [29] of 68.7%, a viability, T/C [43] of 72.8% and a viability, T/C [44] of 63%. It also gave a viability, T/C [45] of 68.8%, a viability, T/C [46] of 61.5% and a viability, T/C [25] of 78.7%. It also gave a viability, T/C [30] of 63.2%, a viability, T/C [47] of 68% and a viability, T/C [48] of 63.2%. It also gave a viability, T/C [49] of 53.1% and a viability, T/C [50] of 56.1%.
